Measured values published in patent publication US6737383B1, “Herbicidal oxadiazolidines” (priority 1999, dated 2004).

Key:
[1] = system: bamyardgrass; experiment: Test B flood test barnyardgrass; assay type: in vivo, Echinochloa crus-galli
Procedure, shortened: (§1)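 Each value is a visual injury score relative to controls, with 10 meaning complete control and 0 no effect. Evaluation took place twelve to sixteen days after the 2-leaf-stage plants were treated and kept in the greenhouse.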

[2] = system: blackgrass; experiment: Test B pre/postemergence blackgrass; assay type: in vivo, Alopecurus myosuroides
Procedure, shortened: (§2)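 Response is a visual 0-to-10 score relative to untreated plants, where 0 means no effect and 10 means complete control, taken twelve to sixteen days after application. Treatments went onto soil at planting and onto foliage of 1- to 4-leaf plants, using a surfactant-containing non-phytotoxic solvent.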

[3] = system: duck salad; experiment: Test B flood test duck salad; assay type: in vivo, Heteranthera limosa
Procedure, shortened: as §1

[4] = system: smallflower flatsedge; experiment: Test B flood test smallflower flatsedge; assay type: in vivo, Cyperus difformis
Procedure, shortened: as §1

[5] = system: giant foxtail; experiment: Test B pre/postemergence giant foxtail; assay type: in vivo, Setaria faberii
Procedure, shortened: as §2

[6] = system: rice; experiment: Test B flood test rice; assay type: in vivo, Oryza sativa
Procedure, shortened: as §1

[7] = system: sugar beet; experiment: Test B pre/postemergence sugar beet; assay type: in vivo, Beta vulgaris
Procedure, shortened: as §2

[8] = system: wild oat; experiment: Test B pre/postemergence wild oat; assay type: in vivo, Avena fatua
Procedure, shortened: as §2

[9] = system: pigweed; experiment: Test B pre/postemergence pigweed; assay type: in vivo, Amaranthus retroflexus
Procedure, shortened: as §2

[10] = system: corn; experiment: Test B pre/postemergence corn; assay type: in vivo, Zea mays
Procedure, shortened: as §2

[11] = system: morningglory; experiment: Test B pre/postemergence morningglory; assay type: in vivo, Ipomoea hederacea
Procedure, shortened: as §2

[12] = system: crabgrass; experiment: Test B pre/postemergence crabgrass; assay type: in vivo, Digitaria sanguinalis
Procedure, shortened: as §2

[13] = system: surinam grass; experiment: Test B pre/postemergence surinam grass; assay type: in vivo, Brachiaria decumbens
Procedure, shortened: as §2

[14] = system: velvetleaf; experiment: Test B pre/postemergence velvetleaf; assay type: in vivo, Abutilon theophrasti
Procedure, shortened: as §2

[15] = system: rape; experiment: Test B pre/postemergence rape; assay type: in vivo, Brassica napus
Procedure, shortened: as §2

[16] = system: cocklebur; experiment: Test B pre/postemergence cocklebur; assay type: in vivo, Xanthium strumarium
Procedure, shortened: as §2

[17] = system: wheat; experiment: Test B pre/postemergence wheat; assay type: in vivo, Triticum aestivum
Procedure, shortened: as §2

[18] = system: purple nutsedge; experiment: Test B pre/postemergence purple nutsedge; assay type: in vivo, Cyperus rotundus
Procedure, shortened: as §2

[19] = system: soybean; experiment: Test B pre/postemergence soybean; assay type: in vivo, Glycine max
Procedure, shortened: as §2

[20] = Rate 62 g/ha, flood test species, Pre-emergence, visual evaluation after twelve to sixteen days
[21] = Rate 125 g/ha, under heading Pre-emergence, flood test species, visual evaluation after twelve to sixteen days
[22] = Rate 250 g/ha, Pre-emergence (flood test species), scale 0 to 10, 0 is no effect, 10 is complete control
[23] = Rate 500 g/ha, Pre-emergence section of Table B, 0 to 10 scale (0 no effect, 10 complete control)
[24] = Postemergence, Rate 62 g/ha, scale 0 to 10, 0 is no effect, 10 is complete control
[25] = Postemergence, Rate 125 g/ha, scale of 0 to 10 where 0 is no effect and 10 is complete control
[26] = Postemergence, Rate 250 g/ha, scale of 0 to 10, 0 is no effect, 10 is complete control
[27] = Postemergence, Rate 500 g/ha, scale of 0 to 10 where 0 is no effect and 10 is complete control
[28] = Preemergence, Rate 62 g/ha, scale of 0 to 10 where 0 is no effect and 10 is complete control
[29] = Preemergence, Rate 125 g/ha, scale of 0 to 10 where 0 is no effect and 10 is complete control
[30] = Preemergence, Rate 250 g/ha, scale 0 to 10 (0 no effect, 10 complete control)
[31] = Preemergence, Rate 500 g/ha, scale of 0 to 10 where 0 is no effect and 10 is complete control

CC(C)N(C(=O)n1oc(=O)n(CC(=O)C2CCC2)c1=O)c1ccccc1 [Compound 641]
6: Plant response rating, Blackgrass [2, 27] | Plant response rating, Giant foxtail [5, 27] | Plant response rating, Crabgrass [12, 27] | Plant response rating, B. signalgrass [13, 30]
4: Plant response rating, B. signalgrass [13, 27] | Nutsedge plant response rating [18, 26]
5: Giant foxtail plant response rating [5, 28] | Plant response rating, Wild oats [8, 31]
9: Giant foxtail plant response rating [5, 29] | Plant response rating, Giant foxtail [5, 30] | Plant response rating, Giant foxtail [5, 31] | Plant response rating, Morningglory [11, 27] | Plant response rating, Crabgrass [12, 31]
7: Plant response rating, Redroot pigweed [9, 31] | Morningglory plant response rating [11, 26] | Plant response rating, Crabgrass [12, 30]
3: Giant foxtail plant response rating [5, 26] | Redroot pigweed plant response rating [9, 26] | Crabgrass plant response rating [12, 26] | Crabgrass plant response rating [12, 29] | Plant response rating, Nutsedge [18, 31]
1: Plant response rating, Wild oats [8, 25] | Wild oats plant response rating [8, 26] | Plant response rating, Morningglory [11, 25] | Soybean plant response rating [19, 26]
8: Plant response rating, Blackgrass [2, 31] | Plant response rating, B. signalgrass [13, 31]
2: Blackgrass plant response rating [2, 26] | Plant response rating, Blackgrass [2, 30] | Plant response rating, Corn [10, 31]
0: Plant response rating, Barnyardgrass (0 to 10 scale, 0 is no effect, 10 is complete control) [1, 20] | Barnyardgrass plant response rating (0 to 10 scale, 0 is no effect, 10 is complete control) [1, 21] | Barnyardgrass plant response rating [1, 22] | Barnyardgrass plant response rating [1, 23] | Plant response rating, Blackgrass [2, 24] | Plant response rating, Blackgrass [2, 25] | Blackgrass plant response rating [2, 28] | Blackgrass plant response rating [2, 29] | Plant response rating, Ducksalad (0 to 10 scale, 0 is no effect, 10 is complete control) [3, 20] | Ducksalad plant response rating (0 to 10 scale, 0 is no effect, 10 is complete control) [3, 21] | Ducksalad plant response rating [3, 22] | Ducksalad plant response rating [3, 23] | Plant response rating, S. Flatsedge (0 to 10 scale, 0 is no effect, 10 is complete control) [4, 20] | S. Flatsedge plant response rating (0 to 10 scale, 0 is no effect, 10 is complete control) [4, 21] | S. Flatsedge plant response rating [4, 22] | S. Flatsedge plant response rating [4, 23] | Plant response rating, Giant foxtail [5, 24] | Plant response rating, Giant foxtail [5, 25] | Plant response rating, Rice (0 to 10 scale, 0 is no effect, 10 is complete control) [6, 20] | Rice plant response rating (0 to 10 scale, 0 is no effect, 10 is complete control) [6, 21] | Rice plant response rating [6, 22] | Rice plant response rating [6, 23] | Plant response rating, Sugarbeets [7, 24] | Plant response rating, Sugarbeets [7, 25] | Sugarbeets plant response rating [7, 26] | Sugarbeets plant response rating [7, 28] | Sugarbeets plant response rating [7, 29] | Plant response rating, Sugarbeets [7, 30] | Plant response rating, Sugarbeets [7, 31] | Plant response rating, Wild oats [8, 24] | Wild oats plant response rating [8, 28] | Wild oats plant response rating [8, 29] | Plant response rating, Wild oats [8, 30] | Plant response rating, Redroot pigweed [9, 25] | Redroot pigweed plant response rating [9, 28] | Redroot pigweed plant response rating [9, 29] | Plant response rating, Redroot pigweed [9, 30] | Plant response rating, Corn [10, 24] | Plant response rating, Corn [10, 25] | Corn plant response rating [10, 26] | Plant response rating, Corn [10, 27] | Corn plant response rating [10, 28] | Plant response rating, Corn [10, 30] | Plant response rating, Morningglory [11, 24] | Morningglory plant response rating [11, 28] | Morningglory plant response rating [11, 29] | Plant response rating, Morningglory [11, 30] | Plant response rating, Morningglory [11, 31] | Plant response rating, Crabgrass [12, 24] | Plant response rating, Crabgrass [12, 25] | Crabgrass plant response rating [12, 28] | Plant response rating, B. signalgrass [13, 24] | Plant response rating, B. signalgrass [13, 25] | B. signalgrass plant response rating [13, 26] | B. signalgrass plant response rating [13, 28] | B. signalgrass plant response rating [13, 29] | Plant response rating, Velvetleaf [14, 24] | Plant response rating, Velvetleaf [14, 25] | Velvetleaf plant response rating [14, 26] | Velvetleaf plant response rating [14, 28] | Velvetleaf plant response rating [14, 29] | Plant response rating, Velvetleaf [14, 30] | Plant response rating, Velvetleaf [14, 31] | Plant response rating, Rape [15, 24] | Plant response rating, Rape [15, 25] | Rape plant response rating [15, 26] | Plant response rating, Rape [15, 27] | Rape plant response rating [15, 28] | Plant response rating, Rape [15, 31] | Plant response rating, Cocklebur [16, 24] | Plant response rating, Cocklebur [16, 25] | Cocklebur plant response rating [16, 26] | Plant response rating, Cocklebur [16, 27] | Cocklebur plant response rating [16, 28] | Cocklebur plant response rating [16, 29] | Plant response rating, Cocklebur [16, 30] | Plant response rating, Cocklebur [16, 31] | Plant response rating, Wheat [17, 24] | Plant response rating, Wheat [17, 25] | Wheat plant response rating [17, 26] | Wheat plant response rating [17, 28] | Wheat plant response rating [17, 29] | Plant response rating, Wheat [17, 30] | Plant response rating, Wheat [17, 31] | Plant response rating, Nutsedge [18, 24] | Plant response rating, Nutsedge [18, 25] | Nutsedge plant response rating [18, 28] | Nutsedge plant response rating [18, 29] | Plant response rating, Nutsedge [18, 30] | Plant response rating, Soybean [19, 24] | Plant response rating, Soybean [19, 25] | Soybean plant response rating [19, 28] | Soybean plant response rating [19, 29] | Plant response rating, Soybean [19, 30] | Plant response rating, Soybean [19, 31]
